Experimental findings from patent publication US6565883B2, “Controlled release oral compositions comprising rivastigmine” (priority 1998, dated 2003) are described below.

The half-life is how long it takes for the measured level to halve.

The data set in a line: Rivastigmine's biopharmaceutical properties in humans. The class given is in vivo. The text has this:
Little has been published in detail on Rivastigmine's biopharmaceutical properties in humans. […] It is subject to pre-systemic and systemic metabolism. […] Suitable test may be effected in fasted beagle dogs.

Turning to `CCN(C)C(=O)Oc1cccc([C@H](C)N(C)C)c1` [Rivastigmine], the absorption entry is “rapidly and completely absorbed”. The metabolism result (esterases, e.g., acetyl and butyryl cholinesterase) is “metabolised mainly through hydrolysis by esterases”. Also, for the setting “human, plasma”, the half-life is 1 h.
